{
  "source": "patent US20100197765A1",
  "about": "“METHOD FOR PROMOTING THE EXPRESSION OF P53, AND P53 EXPRESSION PROMOTER FOR USE IN THE METHOD” (THE UNIVERSITY OF TOKUSHIMA, priority 2007, published 2010)",
  "key": {"[1]": {"test_system": "HCT116 cells", "experiment": "p53 mRNA, vegf IresRNA and vegf mRNA in HCT116 cells exposed to genotoxic stress (Northern)", "type": "cell-based, human", "description": "HCT116 cells (parent cells) were exposed to genotoxic stress that upregulates the expression of p53 mRNA. […] Also, HCT116 cells were exposed to UV-B for 1 minute. Then, after placing them under non-exposed conditions for a predetermined time (6, 12 hours), the expressions were examined in the same manner as in the above."}, "[2]": {"test_system": "p53", "experiment": "p53 mRNA (quantitative RT-PCR) and protein in HCT116 clones stably expressing vegf IresRNA, cisplatin treated", "type": "cell-based, human", "details": "mock HCT116 cells, cisplatin 5 μg/mL, 6 h, 12 h vs 0 h", "source_text": "Full length cDNAs of vegf IresRNA having a sequence from base 600 to base 879 in 5′ UTR of vegf mRNA of SEQ ID NO. 1 were inserted into plasmid vectors pcDNA3.1 (Invitrogen). Thus, vegf IresRNA expression vectors (pcDNA-vegf Ires) were produced. These vegf IresRNA expression vectors (pcDNA-vegf Ires) were transfected into HCT116 (parent cells, wild-type p53), and two types of cell clones that stably overexpress vegf IresRNA were selected with an antibiotic G418. The thus-established two types of vegf IresRNA-expressing cells are hereinafter referred to as vegf Ires-#1 and vegf Ires-#2. Furthermore, as a mock treatment, plasmid vectors pcDNA3.1 lacking the above-described insert were transfected into HCT116 cells, and the transfect cell clones were selected with the antibiotic G418. These cell clones were hereinafter referred to as a mock. Then, expression of vegf IresRNA in these cell clones was examined by Northern blotting.\nSubsequently, each of these vegf IresRNA-stably expressing cell strains was treated in the presence or absence of 5 μg/mL of an anticancer agent cisplatinin for a predetermined time (0, 6, 8, 12, 24 h). Thereafter, the expression level of p53 mRNA was analyzed by quantitative RT-PCR, and the expression level of p53 protein was analyzed by Western immunoblotting. […]"}},
  "data": [
    {"smiles": "N.N.[Cl][Pt][Cl]", "note": "[cisplatin]", "values": [
      {"measurement": "expression of the p53 mRNA", "setting": "[1]; HCT116, 5-FU 80 μmol/L, MMC 6 μg/ml or cisplatin 5 μg/ml, 0, 6, 12 hours", "value": "increased"},
      {"measurement": "expression of the vegf IresRNA", "setting": "[1]; HCT116, cisplatin 5 μg/ml", "value": "decreased"},
      {"measurement": "expressions of p53 mRNA and p53 protein", "setting": "[2]", "value": "significant increase"}
    ]}
  ]
}
